Measured values: US11254958B1, “Metabolic engineering of E coli with thio-phosphate” (priority 2018, dated 2022)
“And” between values parts separate entries of the source, which are not always exact repeats. Identical values can stand only once. “Also recorded” adds a separate entry of the source.

Key:
E. coli K-12 = assay: RNA seq analysis of total RNA (FPKM); type: cell-based; parameters: hisA transcript elevation / FabB transcript elevation / TesA transcript elevation / FabD transcript elevation / FabH transcript elevation / ftsI transcript elevation / idtC transcript elevation / idtB transcript elevation: unit not given here
Description: (§1) E coli K12 bacteria were grown in high citrate minimal media with 5.4 g/L of thiophosphate or 2.4 g/L of Na2HPO4 for up to 12 hrs. The use of high citrate media was chosen to help lower the total amount of thiophosphate needed for growth when compared to regular M9 media (1). The media is prepared as follows: thiophosphate, 5.4 g/L; KCL 1.5 g/L; (NH4)2SO4, 2 g/L; sodium citrate 2H2O, 10 g/L. Adjust the pH to 7.5 and sterile filter the solution. Then add the following: MgSO4-7H2O, 0.2 g/L (sterilized separately as a conc. solution); glucose, 2 g/L sterilized separately by filtration). Glucose can also be sterilized by autoclaving separately. CaCl2 (11 mg/L) is also be added as needed.
For RNA seq analysis the RNA library was prepared using Illumina's TruSeq Stranded mRNA library prep (Illumina, 2010) without selection. The sequencing platform was HiSeq 2500 with a read format of PE 2×150. The coverage was at least 40 million per sample without rRNA depletion. A custom software build (Omegabioservice) of rRNA and tRNA sequences for reference mapping was used to more rapidly map rRNA sequences and avoid compression.
To get some idea of the impact of RNA stabilization via thiophosphate on specific mRNAs, RNA seq results were analyzed as FPKM (fragments per kilobase pair million) out of all reads including rRNA. This study was designed to give an absolute comparison rather than a relative comparison of transcript levels in total RNA. For control cells a total of 43 million reads of 150 bp in length were analyzed while 73.9 million reads were used in thiophosphate treated samples. The reads were mapped to a reference genome, E. coli K-12 substr. MG1655. One of the first things noticed was that many genes were not detected in both treated and control samples. Some of these absences were undoubtedly due to the low coverage resulting from the presence of numerous ribosomal RNA sequences in the preparations. However, even some transcripts readily detected by microarray analysis were not present. Other transcripts were not assessed due to their high copy number and the need for protracted computational time to quantitate. The second thing that was most obvious when comparing the two samples was there were many changes both positive and negative in the levels of transcripts for different genes. The results pointed to significant transcriptional changes induced secondarily via the general stabilization of RNA in vivo with thiophosphate.

[1] = test system: E. coli K12 and JM109 strains; assay: Morphological changes by bright field microscopy; type: cell-based
Description: as §1
To see if any morphological changes were occurring the bacteria were examined using bright field microscopy. […] To test whether this morphology was due to a nutritional deficiency K12 cells were grown in LB broth with 2.7 g of thiophosphate per liter.
In this media, filaments were detected by 8 hrs and by 2 hrs paired bacteria could be seen, as before with minimal media. In the 8 hr sample, however, the view was more mixed compared to that seen with minimal media, as both filamentous bacteria and some shorter and more normal appearing bacteria were observed.

[2] = semi-synthetic media containing thiophosphate with amino acids added

OP(O)(O)=S [thio-phosphate]
maximum decrease observed (E. coli K-12): 1550 × | median fold change, transcripts for 18 of the most abundant proteins (E. coli K-12): 1.55 × fold | median fold decrease of decreased genes (E. coli K-12): 2.4 | median fold increase of increased genes (E. coli K-12): 2.75 | transcript level of the 2 out of 18 abundant-protein genes showing reduction (E. coli K-12): 80 % of normal | genes expressed at low levels showing negative fold changes in mRNA (E. coli K-12; 12 genes expressed at low levels): 58% | transcripts showing negative fold changes, average stability mRNA class (E. coli K-12; 33 mRNAs, half-lives between 5-7 mins, platform not given): 30% | transcripts showing negative fold changes, unstable mRNA class (E. coli K-12; 33 mRNAs, half-lives of 3 mins or less, platform not given): 36% | transcripts showing negative fold changes, stable mRNA class (E. coli K-12; 33 mRNAs, half-lives of 11 mins or more, platform not given): 36% | fold increase in total FPKM counts (E. coli K-12; 4,311 E. coli genes, vs controls): 1.37 × fold | FabB transcript elevation (E. coli K-12; RNA seq): 98 | FabD transcript elevation (E. coli K-12; RNA seq): 3.1 | FabH transcript elevation (E. coli K-12; RNA seq): 10.5 | Leu A transcript fold reduction (E. coli K-12; RNA seq): ~500 × fold | Leu C transcript fold reduction (E. coli K-12; RNA seq): ~500 × fold | Leu D transcript fold reduction (E. coli K-12; RNA seq): ~500 × fold | TesA transcript elevation (E. coli K-12; RNA seq): 3.5 | accA transcript elevation (E. coli K-12; RNA seq): 19.8 × | accC transcript elevation (E. coli K-12; RNA seq): 6.2 × | accD transcript elevation (E. coli K-12; RNA seq): 3.39 × and 3.4 × | adk transcript fold elevation (E. coli K-12; RNA seq): 3.4 × fold | aidB transcript fold elevation (E. coli K-12; RNA seq): 4-6 × fold | bacA transcript elevation (E. coli K-12; RNA seq): 12 × | cysK transcript reduction (E. coli K-12; RNA seq): SOX | cysM transcript reduction (E. coli K-12; RNA seq): 292 × | ddlB transcript increase (E. coli K-12; RNA seq): 30 × | dusB transcript fold elevation (E. coli K-12; RNA seq): 1.18 | dxs transcript fold increase (E. coli K-12; RNA seq): 101 | hisA transcript elevation (E. coli K-12; RNA seq): 6.2 | hisB transcript elevation (E. coli K-12; RNA seq): 162 × | hisC transcript elevation (E. coli K-12; RNA seq): 117 × | hisD transcript elevation (E. coli K-12; RNA seq): 10.9 × | hisG transcript elevation (E. coli K-12; RNA seq): 4.6 × | hisH transcript elevation (E. coli K-12; RNA seq): 28 × | hisI transcript elevation (E. coli K-12; RNA seq): 5 × | idi transcript fold increase (E. coli K-12; RNA seq): 3.57 | infB transcript fold elevation (E. coli K-12; RNA seq): 3 × fold | ispA transcript elevation (E. coli K-12; RNA seq): 154 × | ispD transcript fold increase (E. coli K-12; RNA seq): 2 | ispE transcript fold increase (E. coli K-12; RNA seq): 1.8 | ispF transcript fold increase (E. coli K-12; RNA seq): 2.6 | ispH transcript fold increase (E. coli K-12; RNA seq): 2.2 | katE transcript fold elevation (E. coli K-12; RNA seq): 4-6 × fold | murC transcript increase (E. coli K-12; RNA seq): 26 × | murD transcript increase (E. coli K-12; RNA seq): 144 × | murE transcript increase (E. coli K-12; RNA seq): 152 × | murF transcript increase (E. coli K-12; RNA seq): 250 × | murG transcript increase (E. coli K-12; RNA seq): 199 × | otsA transcript fold elevation (E. coli K-12; RNA seq): 4-6 × fold | prsA transcript elevation (E. coli K-12; RNA seq): < 2 × | pyrG transcript fold elevation (E. coli K-12; RNA seq): 2.1 × fold | pyrH transcript fold elevation (E. coli K-12; RNA seq): 3.5 × fold | rpoS transcript fold elevation (E. coli K-12; RNA seq): 2.3 × fold | rsfs transcript fold decrease (E. coli K-12; RNA seq): 19 × fold | trpA transcript elevation (E. coli K-12; RNA seq): 1049 × | trpB transcript elevation (E. coli K-12; RNA seq): 1955 × | trpC transcript elevation (E. coli K-12; RNA seq): 606 × | trpD transcript elevation (E. coli K-12; RNA seq): 443 × | trpE transcript elevation (E. coli K-12; RNA seq): 541 × | tryD transcript elevation (E. coli K-12; RNA seq): 443 × | ybaY transcript fold elevation (E. coli K-12; RNA seq): 4-6 × fold | ycih transcript fold elevation (E. coli K-12; RNA seq): 8 × fold | yqgf transcript elevation (E. coli K-12; RNA seq): 4.64 × | ftsI transcript elevation (E. coli K-12; RNA seq (value in parentheses)): 109 | idtB transcript elevation (E. coli K-12; RNA seq (value in parentheses)): 164 | idtC transcript elevation (E. coli K-12; RNA seq (value in parentheses)): 3.6 | tRNA synthetases average increase (E. coli K-12; RNA seq, 13 tRNA synthetases detected): 11.7 × fold | CspA transcript fold increase (E. coli K-12; RNA seq, vs control): 1.6 × fold | nusA transcript fold increase (E. coli K-12; RNA seq, vs control): 3 × fold | average fold decrease of decreased genes (E. coli K-12; SD 93): 20.4 | average fold increase of increased genes (E. coli K-12; SD 291): 44 × fold | fold increase in mRNA or non-ribosomal RNA (E. coli K-12; after correcting for expected control reading of 82% for rRNA): 2.75 × fold | fraction of reads that were rRNA (E. coli K-12; custom build of E. coli rRNA sequences): 68.7% | median positive fold change, average mRNA class (E. coli K-12; platform not given): 2.6 × | median positive fold change, stable mRNA class (E. coli K-12; platform not given): 2.7 × | median positive fold change, unstable mRNA class (E. coli K-12; platform not given): 1.6 × | ribD, ribB, ribE and ribF gene transcripts (E. coli K-12; platform not given): did not appear to be significantly elevated | Nlpl fold decrease (E. coli K-12; printed as protein, platform not given): 32 × fold | cdsA mRNA increase (E. coli K-12; value in parentheses (RNA seq)): 21 × | morphology ([1]; K12, LB broth with 2.7 g of thiophosphate per liter, 12 hrs): Filamentous growth was not observed; also recorded: paired phenotype | morphology ([1]; K12, LB broth with 2.7 g of thiophosphate per liter, 12 hrs, listed as TP): paired phenotype | morphology ([1]; K12 and JM109, minimal thiophosphate media, 12 hrs): distinct filamentous morphology | morphology ([1]; K12 and JM109, minimal thiophosphate media, 12 hrs, listed as TP): filamentous phenotype | morphology ([1]; K12 and JM109, thiophosphate media, 2 hrs): appeared as pairs | growth [1, 2]: good growth | morphology [1, 2]: mixed with both long filamentous and shorter bacterial cells
